Results reported in PMC5039586, “Biofilms from Klebsiella pneumoniae: Matrix Polysaccharide Structure and Interactions with Antimicrobial Peptides” (Microorganisms, 2016).
Ends that are not written are not given here.

Experiments:
KpTs113 biofilm = assay: Biofilm susceptibility assay (BIC), sessile cells on peg lids; format: cell-based, Klebsiella pneumoniae; conditions: sessile KpTs113, 24 h with peptide, then 6 h regrowth, OD590 < 0.05
KpTs113 [1] = format: cell-based, Klebsiella pneumoniae; conditions: 24 h
Method: (§1) Minimum inhibitory concentration (MIC) determinations were carried out in MHB on mid-log phase bacteria (1–5 × 10^5 CFU/mL, CFU: colony-forming units) as previously described. […] Data are reported in Table 2 (Ps column) together with MIC and BIC values from Table 1 for an easy comparison. […] To further investigate this protection mechanism, we then determined if the matrix polysaccharide interacted with the helical AMP BMAP-27 by monitoring its effect on peptide structure, using circular dichroism.

KpTs101 [2] = format: cell-based, Klebsiella pneumoniae; conditions: 24 h
Method: as §1

KpTs109 = format: cell-based, Klebsiella pneumoniae; conditions: 24 h
Method: (§2) The bacterial inoculum was incubated overnight in MHB with shaking, then diluted 1:30 in fresh MHB and incubated with shaking for approximately 2 h to the mid-log phase, before resuspending to the appropriate dose, according to the optical density (OD). Minimum inhibitory concentration (MIC) determinations were carried out in MHB on mid-log phase bacteria (1–5 × 10^5 CFU/mL, CFU: colony-forming units) as previously described.

ATCC 700603 = format: cell-based, Klebsiella pneumoniae; conditions: ATCC 700603, 24 h
Method: as §2

KpTs107 = format: cell-based, Klebsiella pneumoniae; conditions: 24 h
Method: as §2

KpMn7 = format: cell-based, Klebsiella pneumoniae; conditions: 24 h
Method: as §2

KpTs12 = format: cell-based, Klebsiella pneumoniae; conditions: 24 h
Method: as §2

KpTs113 [3] = format: cell-based, Klebsiella pneumoniae; conditions: 24 h; remark: listed apart in the source
Method: as §2

KpTs101 [4] = format: cell-based, Klebsiella pneumoniae; conditions: 24 h; remark: listed apart in the source
Method: as §2

KpMn7 biofilm = conditions: 24 h
KpTs12 biofilm = conditions: 24 h
ATCC 700603 biofilm = conditions: ATCC 700603, 24 h
KpTs107 biofilm = conditions: 24 h
KpTs101 biofilm = assay: Biofilm susceptibility assay (BIC), sessile cells on peg lids; format: cell-based, Klebsiella pneumoniae; conditions: sessile KpTs101, 24 h with peptide, then 6 h regrowth, OD590 < 0.05
KpTs109 biofilm = conditions: 24 h
KpTs113 [5] = assay: Peptide uptake by flow cytometry with Trypan Blue quenching; format: cell-based, Klebsiella pneumoniae; conditions: KpTs113, 0.25 µM peptide, 10 min, 37 °C, 1 mg/mL TB
Method: Flow cytometric assays were performed with a Cytomics FC 500 instrument (Beckman-Coulter, Inc., Fullerton, CA, USA) equipped with an argon laser (488 nm, 5 mW) and photomultiplier tube fluorescence detectors. Filtered light wavelength was set at 610 nm for Propidium Iodide (PI) (Sigma, Saint Louis, MO, USA) detection and at 525 nm for BODIPY (BY) detection. All detectors were set on logarithmic amplification. Optical and electronic noise were eliminated by setting an electronic gating threshold on the forward scattering detector, while the flow rate was kept at a data rate below 300 events/second to avoid cell coincidence. For each sample, at least 10,000 events were acquired and stored as list mode files. For the uptake evaluation, cultures of mid-log phase bacteria, diluted to 1 × 10^6 CFU/mL in MHB, were incubated at 37 °C for 10 min with 0.25 µM Bac7(1–35)-BY; after incubation, treated bacterial cells were washed three times in buffered high salt solution (10 mM sodium phosphate, 400 mM NaCl, 10 mM MgCl2, pH 7.2) in order to remove the fraction of peptide bound to the cell surfaces, and immediately analysed by the flow cytometer with or without a 10 min pre-incubation at room temperature with 1 mg/mL of the quencher Trypan Blue (TB).

## GRFKRFRKKFKKLFKKLSPVIPLLHL-NH2 [BMAP-27]
KpTs113 biofilm
  BIC (biofilm inhibitory concentration): >64 µM
KpTs113 [1]
  Ps, MIC in the presence of matrix polysaccharide: 64 µM
KpTs101 [2]
  Ps, MIC in the presence of matrix polysaccharide: 64 µM
KpTs109
  MIC: 4 µM
ATCC 700603
  MIC: 4 µM
KpTs107
  MIC: 4 µM
KpMn7
  MIC: 4 µM
KpTs12
  MIC: 4 µM
KpTs113 [3]
  MIC: 2 µM
KpTs101 [4]
  MIC: 2 µM
KpMn7 biofilm
  BIC (biofilm inhibitory concentration): 64 µM
KpTs12 biofilm
  BIC (biofilm inhibitory concentration): 16 µM
ATCC 700603 biofilm
  BIC (biofilm inhibitory concentration): 64 µM
KpTs107 biofilm
  BIC (biofilm inhibitory concentration): >64 µM
KpTs101 biofilm
  BIC (biofilm inhibitory concentration): >64 µM
KpTs109 biofilm
  BIC (biofilm inhibitory concentration): 32 µM

## RRIRPRPPRLPRPRPRPLPFPRPGPRPIPRPLPFP [Bac7(1–35)]
KpTs113 biofilm
  BIC (biofilm inhibitory concentration): 64 µM
KpTs113 [1]
  Ps, MIC in the presence of matrix polysaccharide: 32 µM
KpTs101 [2]
  Ps, MIC in the presence of matrix polysaccharide: 32 µM
KpTs109
  MIC: 4 µM
ATCC 700603
  MIC: 4 µM
KpTs107
  MIC: 4 µM
KpMn7
  MIC: 4 µM
KpTs12
  MIC: 4 µM
KpTs113 [3]
  MIC: 2 µM
KpTs101 [4]
  MIC: 2 µM
KpMn7 biofilm
  BIC (biofilm inhibitory concentration): 32 µM
KpTs12 biofilm
  BIC (biofilm inhibitory concentration): 8 µM
ATCC 700603 biofilm
  BIC (biofilm inhibitory concentration): 32 µM
KpTs107 biofilm
  BIC (biofilm inhibitory concentration): 16 µM
KpTs101 biofilm
  BIC (biofilm inhibitory concentration): 64 µM
KpTs109 biofilm
  BIC (biofilm inhibitory concentration): 32 µM

## Bac7(1–35)-BY: BODIPY fluorescently labelled derivative of Bac7(1–35) (RRIRPRPPRLPRPRPRPLPFPRPGPRPIPRPLPFP; also: BODIPY label, position not given here; UniProt P19661 131-165, looked up, fragment)
KpTs113 [5]
  quenching of cell fluorescence by Trypan Blue (uptake): < 10%
